Columns and labels:
[1] = system: LFA-1 lateral mobility; assay: LFA-1 distribution on plasma membrane (confocal microscopy); assay type: cell-based, mouse; conditions: 1 μM CCL21 2 min
Description: Evaluation of LFA-1 distribution on plasma membrane. Analysis and quantification of chemokine-induced LFA-1 surface distribution was determined by confocal microscopy, following the same procedure previously described. Briefly, lymphocytes were stimulated in suspension under stirring and then immediately fixed in 1% ice-cold paraformaldehyde in PBS, pH 7.4, for 10 min. Cell were washed and incubated with 10 μg/ml of TIB213 rat anti-mouse LFA-1 (ATCC) for 30 min on ice, washed 3 times and then incubated 30 min with Texas Red-conjugated goat anti-rat secondary antibody. The washed cells adhered for 30 min at 4° C. on 0.1% poly-L-lysine coated round 13 mm glass coverslips and were analyzed with a Carl Zeiss LSM 510 confocal imaging system, with a 63×C-Apochromat objective (NA 1.2). Definition and quantitative analysis of “disperse” and “clustered” morphologies of LFA-1 distribution was as previously described.

[2] = system: LFA-1 high affinity state; assay: Measurement of LFA-1 high affinity state (soluble 125I-ICAM-1 binding); assay type: cell-based, mouse; conditions: 1 μM CCL21 2 min
Description: Measurement of LFA-1 high affinity state. Induction of LFA-1 high affinity state by CCL21 was evaluated by measuring binding of soluble ^125I-ICAM-1. Briefly, ICAM-1 was iodinated with ^125NaI by the Chizzonite method. The binding assay was performed at 37° C. in a 500 μl Eppendorf tube. 40 μl of lymphocyte suspension (5×10^7/ml in PBS containing 1 mg/ml BSA, 2 mM MgCl2, 1 mM CaCl2, 1 mM D-glucose, pH 7.2) were directly layered on […] oil cushion of 2/1 dibutyl/dioctyl phthalates. Lymphocytes were stimulated with 10 μl of PBS containing chemokine (6 μM) and ^125I-ICAM-1 (5×10^5 CPM corresponding approximately to 2 μg of ^125I-ICAM-1). The binding reaction was stopped by rapid centrifugation in microfuge. Radioactivity bound to lymphocytes was counted with a gamma counter.

[3] = system: lymphocyte rolling and arrest on PP-HEV; assay: Intravital video microscopy of lymphocyte-high endothelial venule interaction in Peyer's patches; assay type: in vivo, mouse
Description: Intravital video microscopy analysis of lymphocyte-high endothelial venule interaction in Peyer's patches. Lymphocytes (5×10^6/ml in DMEM without sodium bicarbonate supplemented with 20 mM Hepes, 5% FCS, pH7.1) were labeled with either CMFDA or CMTMR for 30 min at 37° C. 30×10^6 labeled cells were injected iv. In situ videomicroscopic analyses were carried out in high endothelial venules (HEV) in the secondary lymphoid organ Peyer's patch (PP) as previously described. Cell behavior was analyzed over a period of 20-30 min starting at 2 minutes after iv injection. Interactions of ≧1 s were considered significant and were scored. Cells were considered to be interacting whether they rolled, arrested or both. Lymphocytes that remained firmly adherent on venular wall for ≧10 s were considered arrested.

[4] = system: CCL21-induced LFA-1-dependent lymphocyte adhesion to ICAM-1; assay: In vitro rapid adhesion assay on ICAM-1; assay type: cell-based, mouse; conditions: 1 μM CCL21; for rapid adhesion induced by CCL21 on high density of ICAM-1: high density of ICAM-1 (˜5000 sites/μm^2); for rapid adhesion induced by CCL21 on low density of ICAM-1: low density of ICAM-1 (−500 sites/μm^2)
Description: In vitro rapid adhesion assay on ICAM-1. ICAM-1 was purified from mouse spleens and adhesion assays were performed as previously reported. Briefly, primary naïve lymphocytes (about 70% T-, 30% B-cells) were isolated from peripheral and mesenteric lymph nodes and Peyer's patches from young BALB/c mice (Harlan, Italy). Adhesion assays were performed on eighteen well glass slides coated overnight at 4° C. with purified mouse ICAM-1; site density per square micrometer of immobilized ICAM-1 was calculated as reported.

[5] = system: ζ PKC translocation to the plasma membrane; assay: ζ PKC intracellular distribution (sucrose gradient, immunoblot); assay type: cell-based; conditions: CCL21 30 seconds; for ζ PKC translocation to the plasma membrane induced by CCL21: lymphocytes, 30 min pretreatment
Description: ζ PKC intracellular distribution. The assay was performed as previously described. Briefly, lymphocytes were stimulated under stirring with agonists at 37° C. Stimulation was stopped by diluting the cells in a 10 times larger volume of ice-cold PBS. Cells, resuspended in 1 ml of ice-cold PBS containing 8% sucrose, containing the Complete™ protease inhibitor cocktail from Roche, were sonicated and the homogenates were centrifuged at 800×g/10 min to remove nuclei and unbroken cells. The postnuclear supernatant was loaded on discontinuous sucrose gradient (50% sucrose, 30% sucrose) and centrifuged for 120 min. at 100,000×g. The light membrane fraction (plasma membrane) was collected in the 30% layer. Following SDS-PAGE on 10% acrylamide, proteins were electroblotted on nitrocellulose filters, probed with rabbit polyclonal antibodies anti ζ PKC (Santa Cruz Biotechnology), followed by goat polyclonal anti-rabbit HRP conjugated (Sigma) and developed using ECL (Amersham).

[6] = system: autoreactive, encephalitogenic T lymphocytes in inflamed brain microvessels; assay: Intravital microscopy of Ag-stimulated lymphocyte recruitment in inflamed brain microvessels; assay type: in vivo; conditions: mouse model simulating human Multiple Sclerosis
Description: The RhoA derived peptides described in Example 1 were tested for their ability to inhibit Ag-stimulated lymphocyte (autoreactive, encephalitogenic T lymphocytes) recruitment in inflamed brain by looking in vivo cell behavior with intravital microscopy, as described in Example 1. This in vivo model simulates, in mouse, human Multiple Sclerosis.

[7] = target: T1, RhoA binding to Citron-RBD (Homo sapiens, UniProt O14578); assay: Affinity-precipitation (pull-down) of GTP-Val14-RhoA with Citron GST-RBD; conditions: 20 μg of domain, anti-RhoA immunoblot
T1 sequence (O14578 1091-1302 limits assumed): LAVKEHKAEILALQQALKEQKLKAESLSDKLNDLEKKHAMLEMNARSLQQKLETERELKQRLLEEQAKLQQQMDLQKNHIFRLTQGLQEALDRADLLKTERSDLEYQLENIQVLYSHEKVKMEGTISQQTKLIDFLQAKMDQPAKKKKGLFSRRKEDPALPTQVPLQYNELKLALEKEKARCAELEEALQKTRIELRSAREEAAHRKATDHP
Description: (§1) Specificity of RhoA fusion domains and measurement of RhoA activation. The specificity of P1-RhoA fusion domains was evaluated by affinity-precipitation assay using the rho-binding domain (RBD) from Citron, Rhotekin and ROCK. Recombinant Val14-RhoA was loaded with 1 mM GTP at 37° C. for 90 min. 10 μg of Citron, Rhotekin or ROCK GST-RBD conjugated with glutathione beads were mixed with 5 μg of GTP-Val14-RhoA in […] of 50 mM Tris-HCl (pH 7.4), 5 mM MgCl2, 0.5 mM GTP, 2 mg/ml BSA (binding buffer). Binding was for 60 min. at 15° C. The beads were washed twice with binding buffer and subjected to SDS-polyacrylamide gel electrophoresis on a 12% gel. RhoA background binding to glutathione beads was negligible. In case of experiments in presence of P1-RhoA fusion domains, the domains were previously dissolved in binding buffer at 1 mg/ml.

[8] = system: ζ PKC; assay: Measurement of ζ PKC kinase activity; assay type: cell-based; conditions: 150 nM Wortmannin or 30 μM LY294002, 30 min, lymphocytes
Description: Measurement of ζ PKC kinase activity. The assay was performed as previously described. Briefly, lymphocytes were stimulated under stirring with agonists at 37° C. Stimulation was stopped with lysis buffer containing 50 mM Tris-HCl, pH 7.5, 1% Triton X-100, 0.01% SDS, 150 mM NaCl, 50 mM NaF, 10 mM sodium pyrophosphate, 1 μM phenylarsine oxide, containing the Complete™ protease inhibitor cocktail from Roche. After 30 min. on ice, lysates were centrifuged at 16,000 g for 1 min. to remove cell debris. Rabbit polyclonal anti ζ PKC (1 μg) or control rabbit serum was added to equal amount of cell lysates, followed by immunoprecipitation with trisacryl protein A. Equal amounts of ζ PKC were immunoprecipitated as confirmed by Western blot analysis. After four washing, immunoprecipitates were subjected to the kinase reaction for 30 min. at 30° C. in 50 μl of kinase buffer containing 0.5 mM EGTA, 10 mM MgC2, 20 mM HEPES, pH 7.4, 50 μM ATP, 5 μCi [γ-^32P]ATP and 2 μg myelin basic protein (MBP) as a substrate. The reaction was stopped by addition of 5% TCA and the reaction mixture was filtered through phosphocellulose paper. After four rinses with 1% phosphoric acid radioactivity on the filter was determined at a scintillation counter.

[9] = system: Swiss 3T3 mouse fibroblasts; assay: LPA-induced actin stress fibers and membrane ruffling in fibroblasts; assay type: cell-based; conditions: 4 hours at 37° C. with peptide, then 10 min 25 ng/ml LPA
Description: Evaluation of actin stress fibers content. Swiss 3T3 mouse fibroblasts were maintained in DMEM containing 10% FCS for 6 days and then starved for 12 hours. Actin stress fibers content was evaluated in permeabilized cells with TRITC-labeled phalloidin. Analysis was performed by using a Zeiss LSM confocal microscope.

[10] = target: T2, RhoA binding to Rhotekin-RBD (Homo sapiens, UniProt Q9BST9); assay: Affinity-precipitation (pull-down) of GTP-Val14-RhoA with Rhotekin GST-RBD; conditions: 20 μg of domain, anti-RhoA immunoblot
T2 sequence (Q9BST9 17-98 limits assumed): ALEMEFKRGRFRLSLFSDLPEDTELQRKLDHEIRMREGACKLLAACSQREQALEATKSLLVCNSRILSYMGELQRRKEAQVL
Description: as §1

[11] = pretreated lymphocytes injected iv

C[C@@H](N)[C@H]1CC[C@H](C(=O)Nc2ccncc2)CC1 [Y27632, reference compound]
LFA-1 rapid lateral mobility (generation of LFA-1 clusters) induced by CCL21 [1]: neither LFA-1 affinity triggering (FIG. 2H) nor induction of lateral mobility were blocked
LFA-1 high affinity state triggering by CCL21 [2]: neither LFA-1 affinity triggering (FIG. 2H) nor induction of lateral mobility were blocked
rolling and arrest of circulating lymphocytes on PP-HEV [3, 11]: rolled and adhered normally
rapid adhesion induced by CCL21 on high density of ICAM-1 [4]: did not inhibit
rapid adhesion induced by CCL21 on low density of ICAM-1 [4]: did not inhibit

P1-RhoA 23-40: Penetratin-1 fused through a glycine to human RhoA aa 23-40 (IVFSKDQFPEVYVPTVFE, Domain I); aa 34
LFA-1 rapid lateral mobility (generation of LFA-1 clusters) induced by CCL21 [1]: prevented
percentage of cells displaying only rolling on PP-HEV ([3]; 50 μM pretreatment): increased
inhibition of stable arrest of lymphocytes on PP-HEV ([3]; 50 μM pretreatment, P<0.01): about 75%
lymphocyte tethering and interaction with vessels ([3]; pretreated lymphocytes injected iv, 50 μM): did not influence
blockade of ζ PKC translocation to the plasma membrane, densitometric analysis ([5]; 100 μM): about 82%
ζ PKC translocation to the plasma membrane induced by CCL21 [5]: blocked
recruitment/arrest of Ag-stimulated lymphocytes in inflamed brain microvessels [6]: blocks recruitment
binding of RhoA to Citron [7]: blocked
rapid adhesion induced by CCL21 on high density of ICAM-1 [4]: blocked adhesion triggering in a dose-dependent manner
rapid adhesion induced by CCL21 on low density of ICAM-1 [4]: prevented in a dose-dependent manner

O=c1cc(N2CCOCC2)oc2c(-c3ccccc3)cccc12 [LY294002]
prevention of the increase of ζ PKC kinase activity induced by CCL21 [8]: ~62%

COC[C@H]1OC(=O)c2coc3c2[C@@]1(C)C1=C(C3=O)[C@@H]2CCC(=O)[C@@]2(C)C[C@H]1OC(C)=O [Wortmannin]
prevention of the increase of ζ PKC kinase activity induced by CCL21 [8]: about 51%

P1: Plasma membrane translocating sequence from third helix of Antennapedia homeodomain, RQIKIWFQNRRMKWKK; control peptide [reference compound]
LFA-1 rapid lateral mobility (generation of LFA-1 clusters) induced by CCL21 [1]: did not prevent
LFA-1 high affinity state triggering by CCL21 [2]: did not prevent
rolling and arrest of circulating lymphocytes on PP-HEV [3, 11]: did not affect
ζ PKC translocation to the plasma membrane induced by CCL21 [5]: did not prevent
accumulation of actin stress fibers upon LPA triggering [9]: completely ineffective
rapid adhesion induced by CCL21 on high density of ICAM-1 [4]: ineffective
rapid adhesion induced by CCL21 on low density of ICAM-1 [4]: unable to block

P1-RhoA 75-92: Penetratin-1 fused through a glycine to human RhoA aa 75-92 (PDTDVILMCFSIDSPDSL, Domain II); aa 34
LFA-1 rapid lateral mobility (generation of LFA-1 clusters) induced by CCL21 [1]: did not prevent
rolling and arrest of circulating lymphocytes on PP-HEV [3, 11]: did not affect
ζ PKC translocation to the plasma membrane induced by CCL21 [5]: did not prevent
binding of RhoA to Rhotekin [10]: blocked
rapid adhesion induced by CCL21 on high density of ICAM-1 [4]: ineffective
rapid adhesion induced by CCL21 on low density of ICAM-1 [4]: unable to block

Reference: patent publication US20050209147A1, “Peptide inhibitors of RhoA signaling” (The Board of Trustees of the Leland Stanford Junior …, priority 2004, published 2005)
